Test results from paper PMC12720774, “Detergents alter the stability and lipid binding properties of the CD1d immunoreceptor” (Protein Science : A Publication of the Protein Society, 2025).
Several values for one entry are separate records, joined by “and”; a condition that tells them apart may be missing. Identical values can stand only once. Entries after “also recorded” stand apart in the source; their conditions may differ. Counter-ions that a name gives are not always drawn. Like-named read-outs stand apart in the source and are kept apart here.

Key:
[1] = molecular target: T1, recombinant human CD1d ectodomain/β2m complex (hCD1d) (Homo sapiens, UniProt P15813); test: Intrinsic tryptophan fluorescence (ITF) binding assay
T1 construct: TEV protease cleavage site ENLYFQS (C); BirA biotinylation site (C); His7 (C); made in house; host or cells: TurboCHO cells (GenScript)
Protocol: (§1) For ITF assays, the concentration of hCD1d was kept constant, and intrinsic Trp fluorescence (excitation at 285 nm, emission at 335 nm) was measured as a function of increasing detergent concentration (Fossum et al., [2023]) (Figure S2). The change in relative fluorescence intensity (F − F 0/F 0) provides an indication of binding. […] This was due to limited detergent solubility and decreased hCD1d stability in the presence of a large excess of detergent (see below). […] SDS was the exception, for which Trp fluorescence of hCD1d decreased with added detergent. This could indicate a unique conformational change or destabilization of the protein.
(§2) ITF spectra were recorded from 300 to 500 nm using a Horiba FL3‐21 Fluorometer with the excitation wavelength of 285 nm and excitation/emission slits of 6.2 nm. Fluorescence spectra of 50 to 100 nM hCD1d were acquired in the absence and presence of detergents in 1X PBS pH 7.4 at 25°C. Prior to data acquisition, hCD1d and detergent or lipid samples were incubated at 37°C overnight (~12 h) to simulate in vitro and in vivo loading conditions. […] For 18:1 LPC experiments, fluorescence spectra of 100 nM hCD1d were acquired in the absence and presence of 18:1 LPC in 1X PBS pH 7.4 at 25°C. […] For all ITF experiments, the change in fluorescence signal (F − F 0/F 0) was determined at 335 nm. Three replicates were performed, and data are presented as the mean ± standard deviation (n = 3). K D values were fitted with non‐linear regression in GraphPad Prism v10.1.

[2] = molecular target: T2, recombinant human CD1d ectodomain/β2m complex (hCD1d) (Homo sapiens, UniProt P15813+P61769); test: as above
T2 construct: TEV protease cleavage site ENLYFQS (C); BirA biotinylation site (C); His7 (C); made in house; host or cells: TurboCHO cells (GenScript)
Protocol: as §1, §2

[3] = molecular target: T3, CSP 319‐328/HLA‐B*08:01/hβ2M complex (Homo sapiens, UniProt P01889, A93T/A95T/D138N/E176V/E187T/K202T/Q94N/R180D/S35A/V36M/Y33D/Y91F); test: ITF with peptide/HLA complex; assay type: binding; settings: for ITF change in Trp fluorescence (F-F0/F0): peptide/HLA with ODG, replicates
T3 construct: made in house
From the text: (§3) To determine whether detergent effects were specific to hCD1d, we performed analogous ITF, MST, and nanoDSF experiments with a peptide/HLA complex. HLA‐B*08:01, presenting the Plasmodium falciparum derived peptide […] ([…]), was selected as a representative model system since the peptide antigen contains hydrophilic solvent‐exposed residues in the antigen‐binding groove (Frooman et al., [2025]). Although structurally similar to that of hCD1d, HLA‐B*08:01 shares low sequence identity (Figure S10a). […] By nanoDSF, ODG caused minimal destabilization of either complex (ΔT m≈−0.2 to −0.8°C; Figure S10f). […] We posit that lipid‐specific unloading effects of detergent are due to either hydrophobic residues in the antigen binding groove (detergent‐CD1d interactions) and/or the hydrophobic nature of the lipid antigen (detergent‐lipid interactions).
(§4) For comparison with peptide/HLA molecules, we prepared recombinant CSP 319‐328/HLA‐B*08:01/hβ2M complex using in vitro refolding methods fully described previously (Frooman et al., [2025]). The peptide sequence for CSP 319–328 is […]. This peptide was chosen since it contains Lys, Gln, and Asp residues predicted to be solvent‐exposed in the HLA‐B*08:01 binding groove (Frooman et al., [2025]).
ITF experiments with peptide/HLA molecules and detergents were performed using an analogous protocol.

[4] = molecular target: T3, CSP 319‐328/HLA‐B*08:01/hβ2M complex; test: nanoDSF with peptide/HLA complex; assay type: binding; settings: for nanoDSF melting temperature of peptide/HLA: peptide/HLA with ODG, replicates
From the text: as §3, §4
NanoDSF experiments with peptide/HLA molecules and detergents were performed using an analogous protocol.

[5] = ITF - Kd (uM) average, Figure 5A, detergent binding to hCD1d
[6] = K D (ITF), detergent with 100 nM hCD1d, 25°C, 1X PBS pH 7.4, apparent
[7] = 0.001 M detergent, 100 nM hCD1d
[8] = detergent with 100 nM hCD1d, 25°C, 1X PBS pH 7.4, apparent, read-out: K D (ITF)

T1 sequence (P15813 whole entry, looked up, the tested form may be a part, one chain of several): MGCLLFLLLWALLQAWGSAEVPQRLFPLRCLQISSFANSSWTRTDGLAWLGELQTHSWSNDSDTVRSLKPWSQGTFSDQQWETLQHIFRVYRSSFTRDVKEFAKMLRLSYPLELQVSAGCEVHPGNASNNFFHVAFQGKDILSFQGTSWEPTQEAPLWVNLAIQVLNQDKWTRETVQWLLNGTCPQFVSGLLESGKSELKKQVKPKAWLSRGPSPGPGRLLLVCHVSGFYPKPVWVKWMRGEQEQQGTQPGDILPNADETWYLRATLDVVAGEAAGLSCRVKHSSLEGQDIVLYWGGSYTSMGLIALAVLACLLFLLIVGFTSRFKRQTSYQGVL
T2 sequence (P61769+P15813 fused): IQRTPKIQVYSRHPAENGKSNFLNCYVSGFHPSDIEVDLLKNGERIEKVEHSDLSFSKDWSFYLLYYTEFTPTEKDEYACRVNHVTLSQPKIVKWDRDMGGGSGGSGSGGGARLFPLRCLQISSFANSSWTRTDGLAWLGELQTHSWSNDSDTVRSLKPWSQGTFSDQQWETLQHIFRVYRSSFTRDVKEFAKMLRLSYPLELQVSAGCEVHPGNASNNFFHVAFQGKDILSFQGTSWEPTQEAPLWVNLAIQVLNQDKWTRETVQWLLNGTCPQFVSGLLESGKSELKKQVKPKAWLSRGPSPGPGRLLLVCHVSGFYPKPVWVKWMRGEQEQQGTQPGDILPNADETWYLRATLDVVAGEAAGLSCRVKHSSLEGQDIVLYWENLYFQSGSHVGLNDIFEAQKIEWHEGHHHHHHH

CCCCCCCCCCCCCCCC[N+](C)(C)C [CTAB, hexadecyltrimethylammonium bromide]
Kd [1, 5]: 41.5 µM
Kd [1, 6]: 41.5 ± 6.5 µM
F-F0/F0 (rep 1-3) ([2]; 3.0518e-8 M detergent): 0
F-F0/F0 (rep 1-3) ([2]; 3.125e-5 M detergent): 0.613 and 0.517 and 0.672
F-F0/F0 (rep 1-3) ([2]; 6.25e-5 M detergent): 0.966 and 1.08 and 1.22
F-F0/F0 (rep 1-3) ([2]; 0.000125 M detergent): 1.45 and 1.3 and 1.29
F-F0/F0 (rep 1-3) ([2]; 0.00025 M detergent): 1.44 and 1.52 and 1.46
F-F0/F0 (rep 1-3) ([2]; 0.0005 M detergent): 1.55 and 1.65 and 1.44
F-F0/F0 (rep 1-3) [2, 7]: 1.83 and 1.56 and 1.71

C[C@H](CCC(=O)O)[C@H]1CC[C@H]2[C@@H]3CC[C@@H]4C[C@H](O)CC[C@]4(C)[C@H]3C[C@H](O)[C@]12C [Deoxycholate, sodium deoxycholate]
Kd [1, 8]: > 10000 µM
binding to hCD1d by ITF (in words) [2]: No significant binding

CCCCCCCCCCCC[N+](C)(C)[O-] [LDAO, lauryldimethylamine‐N‐oxide]
Kd [1, 8]: > 10000 µM
binding to hCD1d by ITF (in words) [2]: observable binding
F-F0/F0 (rep 1-3) ([2]; 3.0518e-8 M detergent): 0
F-F0/F0 (rep 1-3) ([2]; 1.2207e-7 M detergent): 0.07548 and 0.05543 and 0.06384
F-F0/F0 (rep 1-3) ([2]; 4.8828e-7 M detergent): 0.06847 and 0.06205 and 0.06021
F-F0/F0 (rep 1-3) ([2]; 0.00025 M detergent): 0.1026 and 0.1076 and 0.1826
F-F0/F0 (rep 1-3) [2, 7]: 0.4171 and 0.3604 and 0.4782

CCCCCCCCO[C@@H]1O[C@H](CO)[C@@H](O)[C@H](O)[C@H]1O [ODG, n‐octyl‐β‐D‐glucopyranoside]
Kd [1, 8]: > 10000 µM
binding to hCD1d by ITF (in words) [2]: No significant binding; also recorded: minimal concentration‐dependent fluorescence changes
F-F0/F0 (rep 1-3) ([2]; Concentration (M) 0.000977): 0
ITF fluorescence change with peptide/HLA (in words) [3]: minimal concentration‐dependent fluorescence changes
ITF change in Trp fluorescence (F-F0/F0) ([3]; concentration 1.53e-6 (unit not given)): 0
ITF change in Trp fluorescence (F-F0/F0) ([3]; concentration 3.05e-6 (unit not given)): 0.00207 and -0.125 and -0.0308
ITF change in Trp fluorescence (F-F0/F0) ([3]; concentration 6.1e-6 (unit not given)): 0.0103 and -0.142 and -0.0188
ITF change in Trp fluorescence (F-F0/F0) ([3]; concentration 1.22e-5 (unit not given)): 0.0112 and -0.132 and -0.0414
ITF change in Trp fluorescence (F-F0/F0) ([3]; concentration 2.44e-5 (unit not given)): 0.0406 and -0.126 and -0.0165
ITF change in Trp fluorescence (F-F0/F0) ([3]; concentration 4.88e-5 (unit not given)): -0.113 and -0.0115 and 0.0922
ITF change in Trp fluorescence (F-F0/F0) ([3]; concentration 9.77e-5 (unit not given)): -0.121 and -0.135 and 0.0848
ITF change in Trp fluorescence (F-F0/F0) ([3]; concentration 0.000195 (unit not given)): 0.0173 and -0.126 and -0.052
ITF change in Trp fluorescence (F-F0/F0) ([3]; concentration 0.000391 (unit not given)): 0.0313 and -0.107 and -0.0351
ITF change in Trp fluorescence (F-F0/F0) ([3]; concentration 0.000781 (unit not given)): -0.0702 and -0.0972 and -0.0274
ITF change in Trp fluorescence (F-F0/F0) ([3]; concentration 0.00156 (unit not given)): -0.063 and -0.0903 and -0.0215
ITF change in Trp fluorescence (F-F0/F0) ([3]; concentration 0.00313 (unit not given)): 0.0779 and 0.0569 and 0.00937
ITF change in Trp fluorescence (F-F0/F0) ([3]; concentration 0.00625 (unit not given)): 0.0158 and 0.129 and 0.219
ITF change in Trp fluorescence (F-F0/F0) ([3]; concentration 0.0125 (unit not given)): 0.00491 and 0.00219 and 0.25
ITF change in Trp fluorescence (F-F0/F0) ([3]; concentration 0.025 (unit not given)): 0.118 and 0.242 and 0.374
ΔT m (nanoDSF), peptide/HLA ([4]; absence vs maximum concentration of detergent, 1 μM peptide/HLA): −0.2 to −0.8 °C
nanoDSF melting temperature of peptide/HLA ([4]; concentration 1.495 (unit not given)): 55.47 and 55.54 and 54.62
nanoDSF melting temperature of peptide/HLA ([4]; concentration 2.991 (unit not given)): 55.33 and 55.34 and 55.32
nanoDSF melting temperature of peptide/HLA ([4]; concentration 5.981 (unit not given)): 55.24 and 55.48 and 55.35
nanoDSF melting temperature of peptide/HLA ([4]; concentration 11.96 (unit not given)): 55.41 and 55.18 and 55.09
nanoDSF melting temperature of peptide/HLA ([4]; concentration 23.93 (unit not given)): 55.51 and 54.95 and 55.4
nanoDSF melting temperature of peptide/HLA ([4]; concentration 47.85 (unit not given)): 55.44 and 54.77 and 55.24
nanoDSF melting temperature of peptide/HLA ([4]; concentration 95.7 (unit not given)): 55.2 and 55.36 and 55.21
nanoDSF melting temperature of peptide/HLA ([4]; concentration 191.4 (unit not given)): 55.5 and 55.26 and 55.22
nanoDSF melting temperature of peptide/HLA ([4]; concentration 382.8 (unit not given)): 55.54 and 55.43 and 55.19
nanoDSF melting temperature of peptide/HLA ([4]; concentration 765.6 (unit not given)): 55.29 and 55.05 and 54.95
nanoDSF melting temperature of peptide/HLA ([4]; concentration 1531 (unit not given)): 55.13 and 55.03 and 54.92
nanoDSF melting temperature of peptide/HLA ([4]; concentration 3063 (unit not given)): 54.91 and 54.34 and 54.94
nanoDSF melting temperature of peptide/HLA ([4]; concentration 6125 (unit not given)): 53.87 and 53.91
nanoDSF melting temperature of peptide/HLA ([4]; concentration 12500 (unit not given)): 51.99 and 52.51 and 52.34
nanoDSF melting temperature of peptide/HLA ([4]; concentration 25000 (unit not given)): 50.57 and 50.47 and 50.7
nanoDSF melting temperature of peptide/HLA ([4]; concentration 50000 (unit not given)): 50.26 and 49.92 and 50.62

CCCCCCCCCCCCOS(=O)(=O)O [SDS, sodium dodecyl sulfate]
Kd [1, 5]: 35.5 µM
Kd [1, 6]: 35.5 ± 22.6 µM
F-F0/F0 (rep 1-3) ([2]; 3.0518e-8 M detergent): 0

Tween 80
F-F0/F0 (rep 1-3) ([2]; 6.1035e-9 M detergent): 0
F-F0/F0 (rep 1-3) ([2]; 7.8125e-7 M detergent): 0.1677 and 0.1078 and 0.1575
F-F0/F0 (rep 1-3) ([2]; 1.5625e-6 M detergent): 0.2804 and 0.1624 and 0.168
F-F0/F0 (rep 1-3) ([2]; 3.125e-6 M detergent): 0.6451 and 0.4306 and 0.4698
F-F0/F0 (rep 1-3) ([2]; 6.25e-6 M detergent): 0.9699 and 0.8276 and 0.7611
F-F0/F0 (rep 1-3) ([2]; 1.25e-5 M detergent): 0.863 and 0.6745 and 0.8384
F-F0/F0 (rep 1-3) ([2]; 2.5e-5 M detergent): 1.041 and 0.837 and 0.8177
F-F0/F0 (rep 1-3) ([2]; 5e-5 M detergent): 1.186 and 0.8687 and 0.9274
F-F0/F0 (rep 1-3) ([2]; 0.0001 M detergent): 1.309 and 1.057 and 0.8857
F-F0/F0 (rep 1-3) ([2]; 0.0002 M detergent): 1.646 and 1.2423 and 1.107
Kd ([2]; Figure 5A, detergent binding to hCD1d, read-out: ITF - Kd (uM) average): 4.59 µM
Kd [2, 8]: 4.6 ± 0.9 µM
